Consider one compound from patent publication US20050079231A1, “Use of ingested sublimed sulfur for the restoration of lactose tolerance in humans with the medical disorder of lactose intolerance” (priority 1999, published 2005).

The test system of test [1] is patients with clinical lactose intolerance. Put plainly: Treatment of lactose-intolerant patients with sublimed sulfur: clinical symptoms, baseline vs post-treatment. Format: in vivo, humans. On the procedure:
(§1) From May 1998 through April 2002, 41 patients (22 with clinical and 19 with both clinical and laboratory evidence of severe lactose intolerance) were treated with sublimed sulfur (USP) and a restricted lactose diet for a mean of 3.6 (standard deviation [SD] 3.4) weeks, followed by a regular diet and sublimed sulfur for a mean of 5.8 (SD 5.0) weeks. Quantitative comparisons were made between baseline and post-treatment symptoms in all patients and standard lactose tolerance test results in a subset of 19 patients with positive baseline lactose tolerance tests.

In test [2] the test system is patients with positive baseline lactose tolerance tests. As to the kind of experiment: Standard lactose tolerance test, baseline vs post-treatment. Format: in vivo, humans. The protocol:
as §1

[3] abbreviates: limited course of treatment, conclusion.

Turning to `[S]` [sublimed sulfur], in test [1] (13 of 17 patients whose symptoms redeveloped), the “patients who remained asymptomatic after a second course of treatment” value came to 76%. Besides, the “patients who became clinically asymptomatic after treatment” value in test [1] (17 of the subset of 19 patients with positive baseline lactose tolerance tests) was determined as 89%. Also, the “patients who remained symptom-free after one course of treatment” value in test [1] (20 of the remaining 39 patients) was 51%. For the same compound, in test [1] (39 of 41 patients, sublimed sulfur with restricted lactose diet, then regular diet), the “patients who became asymptomatic during treatment” value is recorded as 95%. Further, the overall relapse rate in test [1] (after one course of treatment, confidence interval in brackets) was 0.46 (confidence interval 0.32-0.61). Moreover, in test [1] (human, in vivo), the “median symptom-free period after discontinuation of sublimed sulfur” value is 76 weeks. In test [1] (setting [3]), the lactose tolerance entry is given as “restored lactose tolerance for prolonged periods”. Further, in test [2] (9 of 19 patients), the “patients who converted from intolerant to tolerant test results” value amounted to 47%. Besides, the “serum glucose level versus baseline in the lactose tolerance test” value is listed as “increased significantly above baseline” in test [2] (at 30 minutes, t=2.81, p=0.01) and “increased significantly above baseline” in test [2] (at 60 minutes, t=2.58, p=0.02). The lactase activity entry in test [2] (setting [3]) was “significant increase”.
